The source of these data is patent US9029369B2, “Aprepitant L-proline composition and cocrystal” (Nuformix Limited, priority 2010, dated 2015).

The nature of data set [1]: Dissolution study, USP Apparatus 2 (paddle), distilled water containing 2.2% SDS. It counts as physicochemical. Conditions: 2.2% SDS in purified water. The protocol:
Material providing 125 mg of aprepitant was used in each dissolution experiment and in each experiment the test sample was added directly to the dissolution media as a loose powder.
Analysis was carried out by HPLC/UV using an Agilent 1100/1200 series HPLC system with UV variable wavelength detection. Standards were prepared in acetonitrile at 0.14 mg/ml. All standard and sample solutions were filtered through 0.45 μm filters.

Data set [2] in a line: Stability study under accelerated conditions, 40° C./75% RH, examined by XRPD.
The conditions of data set [3]: cited from earlier work.
The conditions of data set [4]: low solubility and low permeability API; cited from earlier work.
The conditions of data set [5]: nanoparticulate formulation (marketed capsules, oral); cited from earlier work.
Where [6] appears, read: 0 mins, 900 ml, 37.0° C., 100 rpm, material providing 125 mg aprepitant, triplicate.
The mark [7] stands for this setting: 180 mins (infinity time point), 37.0° C., 100 rpm.

The structures appear in SMILES notation. Where two headings read alike, the source gives them in different places.

As to `C[C@@H](O[C@H]1OCCN(Cc2n[nH]c(=O)[nH]2)[C@H]1c1ccc(F)cc1)c1cc(C(F)(F)F)cc(C(F)(F)F)c1.O.O=C(O)[C@@H]1CCCN1`, the mean dissolution value in data set [1] (setting [6]) is 0.0%; in data set [1] (1 min, 37.0° C., 100 rpm), “more than 93%”; in data set [1] (1 min, 37.0° C., 100 rpm, listed as 1:1:1 Aprepitant L-proline cocrystal), 93.4%; in data set [1] (2 mins, 37.0° C., 100 rpm), 95.7%; in data set [1] (3 mins, 37.0° C., 100 rpm) it was 95.6%; in data set [1] (4 mins, 37.0° C., 100 rpm), 95.8%. For the same compound, the mean dissolution value worked out at 95.1% in data set [1] (5 mins, 37.0° C., 100 rpm); 95.5% in data set [1] (10 mins, 37.0° C., 100 rpm); 95.9% in data set [1] (15 mins, 37.0° C., 100 rpm); 96.0% in data set [1] (20 mins, 37.0° C., 100 rpm); 96.2% in data set [1] (30 mins, 37.0° C., 100 rpm); 96.8% in data set [1] (45 mins, 37.0° C., 100 rpm). Moreover, the mean dissolution value in data set [1] (60 mins, 37.0° C., 100 rpm) is reported as 97.0%; in data set [1] (setting [7]), 99.2%. Moreover, in data set [1] (up to 180 minutes), the “behaviour once dissolved (re-precipitation of the API)” value is “remained in solution with no re-precipitation of the API”. Moreover, the “XRPD Characterization” value in data set [2] (1 month), in data set [2] (1 week), in data set [2] (2 months), in data set [2] (2 week), in data set [2] (3 months) and in data set [2] (3 week) was “cocrystal” in each case. The “XRPD Characterization” value in data set [2] (6 months) and in data set [2] (time point 0) was “cocrystal” each time. Further, the “physical stability with respect to dissociation into starting components” value in data set [2] (six month period) is recorded as “stable”.

Consider `C[C@@H](O[C@H]1OCCN(Cc2nc(=O)[nH][nH]2)[C@H]1c1ccc(F)cc1)c1cc(C(F)(F)F)cc(C(F)(F)F)c1` [Crystalline Aprepitant, reference compound], for which the solubility entry is on record as “slightly soluble” in data set [3] (in acetonitrile), “sparingly soluble” in data set [3] (in ethanol), “sparingly soluble” in data set [3] (in isopropyl acetate) and “practically insoluble” in data set [3] (in water). Moreover, the BCS class entry in data set [4] is on record as “Class IV”. Besides, in data set [5], the mean absolute bioavailability is 60-65%. In addition, the mean dissolution value in data set [1] (setting [6]) worked out at 0.0%; in data set [1] (1 min, 37.0° C., 100 rpm) it was 18.5%; in data set [1] (2 mins, 37.0° C., 100 rpm) it was 34.4%; in data set [1] (3 mins, 37.0° C., 100 rpm), 44.2%; in data set [1] (4 mins, 37.0° C., 100 rpm) it was 52.2%; in data set [1] (5 mins, 37.0° C., 100 rpm), 57.6%. Also, the mean dissolution value in data set [1] (10 mins, 37.0° C., 100 rpm) is 70.1%; in data set [1] (15 mins, 37.0° C., 100 rpm) it was 77.2%; in data set [1] (20 mins, 37.0° C., 100 rpm), 80.4%; in data set [1] (30 mins, 37.0° C., 100 rpm), 85.4%; in data set [1] (45 mins, 37.0° C., 100 rpm), 87.3%; in data set [1] (60 mins, 37.0° C., 100 rpm), 89.3%. The mean dissolution value in data set [1] (setting [7]) is 94.6%. For the same compound, in data set [1] (37.0° C., 100 rpm), the “time to achieve the same level of dissolution that the cocrystal achieved within the first minute” value is about 180 min.
